Reference: ChEMBL document CHEMBL3301546, “MMV Malaria Box yeast growth screening”

Legend:
Type in all cases: functional
[1] = tested on: Saccharomyces cerevisiae; experiment: (§1) MMV: Growth assays were conducted using the prototrophic S. cerevisiae strain JHY222. Each MMV compound (0.1 mM) was tested in rich media containing dextrose as a carbon source (Yeast Extract, Peptone, Dextrose; YPD). The growth rate in the presence of each MMV compound was calculated as follows: (i) the first 10 OD readings were averaged and subtracted from all OD readings of the corresponding curve to set the baseline of the growth curve to zero, and (ii) the area under the curve (AUC) was then calculated as the sum of all OD readings. […] A relative growth value was calculated as follows: AUC(DRUG) - AUC(DMSO)/AUC(DMSO); where AUC(DMSO) represents growth measured in a DMSO control well that was on the same microtiter plate of the drug-treated culture.
[2] = tested on: Saccharomyces cerevisiae; experiment: as §1, with “minimal” for “rich”, “Nitrogen Base,” for “Extract, Peptone,”, “YNBD).” for “YPD).”
[3] = tested on: Saccharomyces cerevisiae; experiment: as §1, with “minimal” for “rich”, “ethanol and glycerol” for “dextrose”, “as” for “as a”, “sources” for “source”, “Nitrogen Base, Ethanol, Glycerol; YNBEG).” for “Extract, Peptone, Dextrose; YPD).”

Structure (SMILES) | Relative Growth [1] | Relative Growth [2] | Relative Growth [3]
c1ccc2cc3c(Nc4ccc(N5CCOCC5)cc4)ccnc3cc2c1 | 0.0179 | 0.0841 | 0.2097
COc1ccc(-c2nonc2NC(=O)c2cccc(C)c2)cc1OC | -0.0571 | 0.0614 | -0.0764
Br.CCN(CC)S(=O)(=O)c1ccc(-c2csc(Nc3ccc(C)c(C)c3)n2)cc1 | -0.1037 | 0.0785 | -0.6715
CN(N=O)C1=C(NC2CCCCC2)C(=O)c2ccccc2C1=O | -0.04 | -0.0674 | -0.7745
CCOc1c(Cl)cc(CNC(C)C(O)c2ccccc2)cc1OC (centres undefined) | -0.0562 | -0.05 | 0.1383
O=c1nc(C=Cc2ccc(Br)cc2)oc2ccccc12 | -0.0705 | 0.007 | 0.0189
CCOC(=O)c1c[nH]c2c(CC)cccc2c1=O | -0.0665 | -0.1466 | -0.0989
Clc1ccc2[nH]c3c(NCCCN4CCOCC4)ncnc3c2c1 | 0.0234 | -0.0328 | -0.0516
OC(CNC1CCCC1)Cn1c2ccccc2c2ccccc21 (centres undefined) | -0.0524 | -0.142 | -0.0741
COc1ccccc1CNC(=O)CCn1c(=O)[nH]c2ccccc2c1=O | -0.0038 | 0.0763 | 0.058
COc1cccc(C(=O)NC(c2ccc(C)cc2)c2cc(Cl)c3cccnc3c2O)c1 (centres undefined) | -0.0292 | 0.017 | 0.1449
Cc1ccc(C2CC(C(F)(F)F)n3nc(C(=O)N4CCN(C(c5ccccc5)c5ccccc5)CC4)cc3N2)cc1 (centres undefined) | 0.0315 | -0.1134 | -0.019
O=C(O)C1Cc2c([nH]c3ccccc23)C(c2ccc(Cl)cc2Cl)N1 (centres undefined) | -0.035 | -0.0148 | 0.1085
FC(F)(F)c1ccc(Nc2nnnc3ccccc23)cc1 | -0.97 | -0.0492 | 0.0852
Nc1ccc(-c2nc3cc(Oc4ccc(Oc5ccc6[nH]c(-c7ccc(N)cc7)nc6c5)cc4)ccc3[nH]2)cc1 | -0.9892 | 0.0002 | -0.1502
O=C(Nc1cccc(C(F)(F)F)c1)c1cc(Cl)ccc1O | -0.651 | -1.0097 | -1.011
COc1ccc(-c2cn3c(C(=O)Nc4ccccc4Cl)c(-c4ccccc4)c4c3n2CCCC4)cc1 | -0.0135 | 0.0523 | -0.235
CCCCc1c(C)nc2c(OC)cccc2c1O | -0.0392 | -0.0292 | 0.0348
COc1ccc(N2CCN(C(CNC(=O)C3CCCCC3)c3ccc4c(c3)OCO4)CC2)cc1 (centres undefined) | -0.0299 | -0.0986 | -0.124
O=c1cc(NC2CCN(CCCc3ccccc3)CC2)c2cc(Cl)ccc2o1 | -0.0193 | 0.014 | 0.0246
COc1ccc(C=C2SC(=N)N(c3ccccc3OC)C2=O)cc1 | -0.083 | -0.0085 | -0.0639
COc1cc(C(=O)Nc2nc3c(cc4c5c(cccc53)CC4)s2)cc(OC)c1OC | 0.0021 | -0.1254 | -0.0592
COc1cccc(Nc2nc(NCCO)c3ccccc3n2)c1.Cl | 0.0163 | -0.0288 | -0.0151
Clc1ccc2c(N3CCCC3)ccnc2c1 | -0.0453 | 0.0172 | -0.0954

Structure (SMILES) | Relative Growth [1] | Relative Growth [2] | Relative Growth [3]
CCC1(C)CC(CCNCc2ccccc2O)(c2ccc(C)cc2)CCO1 (centres undefined) | 0.0044 | 0.0584 | 0.156
N#Cc1nc(Cc2cccc3ccccc23)oc1N1CCN(C(c2ccccc2)c2ccccc2)CC1 | -0.0026 | 0.059 | 0.0463
CCOc1cc2c(cc1OCC)C(c1cc(C)c(O)c(C)c1)NCC2.Cl (centres undefined) | -0.1843 | -0.1636 | -0.7495
CCOc1ccc2nc(C)cc(Nc3ccc(N(C)C)cc3)c2c1.Cl | -0.2818 | -0.1579 | -0.2064
c1ccc(-c2ccc(-c3nc4ccccc4[nH]3)cc2)cc1 | -0.0154 | -0.0469 | 0.0562
COc1ccccc1N1CCN(C(CNS(=O)(=O)c2ccc(Cl)cc2)c2cccnc2)CC1 (centres undefined) | -0.173 | -0.1378 | -0.6721
Cc1ccc2c(C)nc(Nc3nc(C)cc(-c4ccccc4)n3)nc2c1 | -0.9982 | -0.1458 | -0.009
O=C(Nc1ccc(-c2nc3cc(NC(=O)c4ccc(Cl)cc4)ccc3[nH]2)cc1)c1ccc(Cl)cc1 | -0.0297 | 0.0064 | 0.0694
Cc1ccc(N2C3c4ccccc4N(S(=O)(=O)c4ccc(C)cc4)C2c2ccccc2N3S(=O)(=O)c2ccc(C)cc2)cc1 | -0.0583 | -0.0282 | -0.3051
COc1ccc(C2c3ccc4ccccc4c3Oc3ncn(CCCn4ccnc4)c(=N)c32)cc1OC (centres undefined) | 0.015 | -0.111 | 0.1296
Cc1ccc(Nc2nc(N)c3ccccc3n2)cc1Cl | -0.0022 | -0.1031 | -0.1803
FC(F)(F)c1cccc(Nc2nc(-c3ccccc3)nc3ncccc23)c1 | 0.1402 | -0.0599 | -0.0611
COc1cc2c3cc1Oc1c(OC)c(OC)cc4c1C(Cc1ccc(O)c(c1)Oc1ccc(cc1)CC3N(C)CC2)N(C)CC4.Cl (centres undefined) | -0.0961 | 0.0109 | -0.1414
COc1ccc2nc(C)cc(Nc3ccc(Cl)cc3)c2c1 | -0.0836 | 0.0064 | -0.1037
CCOc1cc(CNC(C)C(O)c2ccccc2)cc(Cl)c1OCC (centres undefined) | -0.0689 | 0.088 | -0.0694
FC(F)(F)c1cccc(CNC2CCN(CCc3ccccc3)CC2)c1 | -0.0003 | -0.0056 | -0.3142
Cc1cc(NC(=O)C2c3ccccc3C(=O)N(CC(C)C)C2c2cccs2)no1 (centres undefined) | -0.03 | -0.0434 | -0.0882
Cc1cc(N(C)C)nc(Nc2ccc(NC(=O)Nc3ccccc3)cc2)n1 | -0.0299 | -0.0678 | -0.3445
CC1CCN(Cc2ccc(NC(=O)c3cc4ccc5cccnc5c4[nH]3)cc2)CC1 | -0.0895 | 0.121 | -0.318
CCc1ccc(Nc2cc(C)c3ccc(O)cc3n2)cc1.Cl | -0.0071 | 0.1514 | 0.0748
CCCN(CCC)CCCNC(=O)c1cc2c(-c3ccc(OC)c(OC)c3)nn(C)c2s1 | -0.0057 | -0.0982 | -0.061
c1ccc2c(NCCc3c[nH]c4ccccc34)c3ccccc3nc2c1 | -0.7261 | -0.0449 | -0.0957
FC(F)(F)c1cccc(Nc2nc3ccccc3nc2Nc2cccc(C(F)(F)F)c2)c1 | -0.0449 | -0.0009 | -0.1177
CC(=O)c1ccc(NC(=O)CSc2nc(-c3ccccc3Cl)ns2)cc1 | -0.0294 | 0.0088 | 0.0011
